{"source": "patent US20150190322A1", "about": "“COMPOSITION, METHOD AND KIT FOR ENHANCING HAIR” (PHARMA PATENT HOLDING INC., priority 2009, published 2015)", "origin": "cited, not measured here", "settings": "in some patients, during use for reduction of intraocular pressure"}
{"smiles": "CC(C)OC(=O)CCC/C=C\\C[C@@H]1[C@@H](CC[C@@H](O)CCc2ccccc2)[C@H](O)C[C@@H]1O", "note": "[Latanoprost, isopropyl-(Z)-7[(1R, 2R, 3R, 5S)3,5-dihydroxy-2-[(3R)-3-hydroxy-5-phenylp-entyl]cyclopentyl]-5-heptenoate]", "values": [{"measurement": "pigmentation and growth of eyelashes", "value": "increasing pigmentation and growth of eyelashes"}]}
